# Values quoted from earlier work, collected in patent US20070293479A1, “OLANZAPINE PHARMACEUTICAL COMPOSITION” (priority 2006, published 2007).
# Settings: free base, at pH 6.8
smiles,measurement,value
Cc1cc2c(s1)Nc1ccccc1N=C2N1CCN(C)CC1 [Olanzapine],solubility,about 0.02 mg/ml
